Assay results reported in article PMC8896685 (PLoS ONE, 2022).
Numbered stars: 1 amine (or outer) side, 2 acyl side, 3 side chain; on linkers, the order of the positions; unused ones are H or OH. Square brackets hold non-standard residues; d marks the D form. Side chains are listed from the residue outwards. Peptide text beside a SMILES is read from it. * marks the point of attachment. C18 diacid = O=C(O)CCCCCCCCCCCCCCCCC(=O)*; γGlu = O=C(O)[C@H](CCC(=O)[*:2])N[*:1]; Aib = CC(C)(N)C(=O)O

Columns and labels:
DIO rats = assay: Oral glucose tolerance in DIO rats at steady state; format: in vivo, rat; conditions: 3 nmol/kg s.c. once daily, 3 g/kg oral glucose, p<0.05
Experimental: Oral glucose tolerance was evaluated on study day 15, 5 h post-dosing (at Cmax). Animals were fasted for 5 h prior to oral administration of glucose (3 g/kg). […] Conscious animals were MR-scanned prior to initiation of treatment and at the end of the treatment period.

Human GCGR = target: T1, Human GCGR (Homo sapiens, UniProt P47871); assay: Receptor potency, CRE-luciferase functional assay in BHK cells; format: cell-based; conditions: Human receptors, whole BHK cells, 3 h 37°C, value (95% CI)
T1 construct: a plasmid encoding either the glucagon receptor or the GLP-1 receptor from the relevant species; expressed in transfected cells

Human GLP-1R = Human GLP-1R (Homo sapiens, UniProt P43220); assay: as above; format: cell-based; conditions: Human receptors, whole BHK cells, 100% species-specific plasma, 3 h 37°C, value (95% CI)
Sequence of Human GLP-1R (P43220 24-463): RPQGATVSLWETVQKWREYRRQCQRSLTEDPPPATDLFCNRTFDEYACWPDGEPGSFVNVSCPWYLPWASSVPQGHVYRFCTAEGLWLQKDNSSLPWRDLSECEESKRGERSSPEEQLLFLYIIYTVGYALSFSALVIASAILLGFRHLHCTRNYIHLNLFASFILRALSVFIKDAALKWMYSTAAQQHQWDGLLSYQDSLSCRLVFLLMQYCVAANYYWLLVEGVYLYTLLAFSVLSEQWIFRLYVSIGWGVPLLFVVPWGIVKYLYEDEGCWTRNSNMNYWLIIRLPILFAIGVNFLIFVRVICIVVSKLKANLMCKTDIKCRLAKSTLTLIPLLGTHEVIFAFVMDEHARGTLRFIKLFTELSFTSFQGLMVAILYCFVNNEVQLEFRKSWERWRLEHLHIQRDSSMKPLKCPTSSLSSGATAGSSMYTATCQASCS

T1 sequence (P47871 26-477): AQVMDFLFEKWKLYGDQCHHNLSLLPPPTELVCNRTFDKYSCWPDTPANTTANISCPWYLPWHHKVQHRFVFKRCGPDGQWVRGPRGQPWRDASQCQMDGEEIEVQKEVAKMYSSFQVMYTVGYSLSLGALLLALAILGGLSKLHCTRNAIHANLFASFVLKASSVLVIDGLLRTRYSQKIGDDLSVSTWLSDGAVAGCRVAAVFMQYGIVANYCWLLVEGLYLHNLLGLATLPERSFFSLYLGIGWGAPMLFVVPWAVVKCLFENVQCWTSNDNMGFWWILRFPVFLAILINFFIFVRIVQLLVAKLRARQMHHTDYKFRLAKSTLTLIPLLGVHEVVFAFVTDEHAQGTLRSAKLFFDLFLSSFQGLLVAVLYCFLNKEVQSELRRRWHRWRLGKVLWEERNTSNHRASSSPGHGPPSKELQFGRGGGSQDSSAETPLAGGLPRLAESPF

EC50 (Human GCGR; GCGR EC50, pM (95% CI) 0% plasma, 0% plasma): 1.83 pM
EC50 (Human GCGR; GCGR EC50, pM (95% CI) 100% plasma, 100% species-specific plasma): 312 pM
EC50 (Human GLP-1R): 0.149 nM
Structure (SMILES): CC(C)C[C@H](NC(=O)[C@H](Cc1ccc(O)cc1)NC(=O)[C@H](CCCCN)NC(=O)[C@H](CO)NC(=O)[C@H](CC(C)C)NC(=O)[C@H](CC(=O)O)NC(=O)[C@H](CO)NC(=O)[C@@H](NC(=O)[C@H](Cc1ccccc1)NC(=O)[C@@H](NC(=O)CNC(=O)[C@H](CCC(N)=O)NC(=O)C(C)(C)NC(=O)[C@@H](N)Cc1c[nH]cn1)[C@@H](C)O)[C@@H](C)O)C(=O)N[C@@H](CCC(=O)O)C(=O)N[C@@H](CO)C(=O)N[C@@H](CCCCN)C(=O)N[C@@H](CCCNC(=N)N)C(=O)N[C@@H](C)C(=O)N[C@@H](CCCNC(=N)N)C(=O)N[C@@H](CCC(=O)O)C(=O)N[C@@H](Cc1ccccc1)C(=O)N[C@H](C(=O)N[C@@H](CCC(N)=O)C(=O)N[C@@H](Cc1c[nH]c2ccccc12)C(=O)N[C@@H](CC(C)C)C(=O)N[C@@H](CC(C)C)C(=O)N[C@@H](CCCCNC(=O)CC[C@H](NC(=O)CC[C@H](NC(=O)[C@H](CO)NC(=O)[C@H](CCC(=O)O)NC(=O)[C@H](CO)NC(=O)CC[C@H](NC(=O)CC[C@H](NC(=O)CCCCCCCCCCCCCCCCC(=O)O)C(=O)O)C(=O)O)C(=O)O)C(=O)O)C(=O)N[C@H](C(N)=O)[C@@H](C)O)C(C)C [NN1177] (H-H[Aib]QGTFTSDLSKYLESKRAREFVQWLLK([γGlu-γGlu-Ser-Glu-Ser-γGlu-γGlu-C18 diacid])T-NH2)
Oral glucose tolerance vs vehicle (DIO rats): significantly impaired
